According to ChEMBL document CHEMBL1145689, “Phospholipase A 2 Inhibitors from an Erythrina Species from Samoa” (J Nat Prod, 1997):
pIC50: −log10 of the molar value.

Molecular target: Phospholipase A2 (Homo sapiens, UniProt P04054)
Assay: Inhibition of PLA2 in fMLP and A23187 ionophore-stimulated human HL60 cells assessed as effect on [3H]arachidonic acid release
Format: cell-based
Conditions: hl-60

Sequence of Phospholipase A2 (P04054 whole entry): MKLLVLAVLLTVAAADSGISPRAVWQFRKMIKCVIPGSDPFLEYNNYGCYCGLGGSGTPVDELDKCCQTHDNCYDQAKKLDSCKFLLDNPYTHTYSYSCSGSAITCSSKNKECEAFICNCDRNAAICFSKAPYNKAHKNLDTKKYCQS

Row | pIC50 | Structure (SMILES)
1 | 5.00 | CC(C)=CCc1cc(C2CC(=O)c3c(cc(O)c(CC=C(C)C)c3O)O2)cc(CC=C(C)C)c1O (stereo not drawn)
2 | 5.22 | CC(C)=CCc1cc([C@@H]2CC(=O)c3c(O)cc(O)cc3O2)cc(CC=C(C)C)c1O [ABYSSINONE V]
3 | 5.52 | CC(C)=CCc1cc2c(cc1O)OCc1c-2oc2c(CC=C(C)C)c(O)ccc12 [ERYCRYSTAGALLIN]
